Measurements taken from patent publication US6264991A, “Compositions and methods for treating intracellular infections” (priority 1998, dated 2001).
≈ marks a conversion by molar mass, not a printed value. Where “and” joins values, the source holds several entries; their conditions need not be identical. Equal entries are not always repeated. Where two headings read alike, the source gives them in different places.

Experiments:
M. tuberculosis H37Rv [1] = conditions: free drug, all three concentrations (0.25, 0.75, 2.0 μg/ml)
M. tuberculosis H37Rv [2] = conditions: free rifampicin, all concentrations
M. tuberculosis H37Rv [3] = conditions: for log10 CFU: individual mice; for log10 CFU / Mean log10 CFU: day 26
[4] = test system: Mycobacterium tuberculosis; test: MIC for rifampicin, tuberculosis in primates
[5] = test system: Mycobacterium tuberculosis H37Rv; test: Minimal inhibitory concentration (Etest); assay type: cell-based, Mycobacterium tuberculosis H37Rv (ATCC 27294)
Text: Mycobacterium tuberculosis H37Rv (ATCC 27294, SRI #1345) was maintained on Middlebrook 7H1O agar slants, containing 0.5% glycerol and 10% OADC (Difco).

SMILES: CO[C@H]1/C=C/O[C@@]2(C)Oc3c(C)c(O)c4c(O)c(c(/C=N/N5CCN(C)CC5)c(O)c4c3C2=O)NC(=O)/C(C)=C\C=C\[C@H](C)[C@H](O)[C@@H](C)[C@@H](O)[C@@H](C)[C@H](OC(C)=O)[C@@H]1C [Rifampicin]
- reduction in CFUs, J774 (M. tuberculosis H37Rv [1]): significant reduction in CFUs
- reduction of CFUs, MM6 (M. tuberculosis H37Rv [2]): significant reduction of CFUs
- log10 CFU (M. tuberculosis H37Rv [3]; oral 0.42 mg/kg daily, 0.42 mg/kg): 5.86 log10 CFU and 5.66 log10 CFU and 5.59 log10 CFU and 5.72 log10 CFU and 5.95 log10 CFU and 5.88 log10 CFU and 5.7 log10 CFU and 6.15 log10 CFU
- Mean log10 CFU (M. tuberculosis H37Rv [3]; oral 0.42 mg/kg daily): 5.62 log10 CFU
- log10 CFU (M. tuberculosis H37Rv [3]; oral 1.25 mg/kg daily, 1.25 mg/kg): 5.97 log10 CFU and 5.71 log10 CFU and 5.69 log10 CFU and 5.64 log10 CFU and 5.47 log10 CFU and 5.44 log10 CFU and 5.62 log10 CFU and 5.88 log10 CFU and 5.72 log10 CFU
- Mean log10 CFU (M. tuberculosis H37Rv [3]; oral 1.25 mg/kg daily): 5.68 log10 CFU
- log10 CFU (M. tuberculosis H37Rv [3]; oral 5.0 mg/kg daily, 5 mg/kg): 5.45 log10 CFU and 5.31 log10 CFU and 5.10 log10 CFU and 5.43 log10 CFU and 5.06 log10 CFU and 5.18 log10 CFU and 5.20 log10 CFU and 5.51 log10 CFU and 5.32 log10 CFU
- Mean log10 CFU (M. tuberculosis H37Rv [3]; oral 5.0 mg/kg daily): 5.27 log10 CFU
- log10 CFU (M. tuberculosis H37Rv [3]; oral 10 mg/kg daily, 10 mg/kg): 4.27 log10 CFU and 4.72 log10 CFU and 4.15 log10 CFU and 4.00 log10 CFU and 3.48 log10 CFU and 4.54 log10 CFU and 3.30 log10 CFU and 3.00 log10 CFU and 4.48 log10 CFU
- Mean log10 CFU (M. tuberculosis H37Rv [3]; oral 10 mg/kg daily): 3.99 log10 CFU
- reductions in viable M. tuberculosis H37Rv (M. tuberculosis H37Rv [3]; oral 5.0 and 10 mg/kg, 26 days post-infection): significant reductions
- MIC [4]: 0.06 to 0.25 µg/mL (≈ 0.0729 to 0.304 µM)
- MIC [5]: 0.06 to 0.25 µg/mL (≈ 0.0729 to 0.304 µM)
- MIC ([5]; Etest, read-out: minimal inhibitory concentration (MIC)): 0.06 to 0.25 µg/mL (≈ 0.0729 to 0.304 µM)
